Measured values as given in paper PMC9030254, “Target Hopping from Protein Kinases to PXR: Identification of Small-Molecule Protein Kinase Inhibitors as Selective Modulators of Pregnane X Receptor from TüKIC Library” (Cells, 2022).

Experiments:
Test in all cases: Kinase profiling
Format in all cases: biochemical
FLT3 = target: T1, FLT3 (Homo sapiens, UniProt P36888)
T1 construct: purchased ProQinase (Freiburg, Germany)
T1 sequence (P36888 27-993): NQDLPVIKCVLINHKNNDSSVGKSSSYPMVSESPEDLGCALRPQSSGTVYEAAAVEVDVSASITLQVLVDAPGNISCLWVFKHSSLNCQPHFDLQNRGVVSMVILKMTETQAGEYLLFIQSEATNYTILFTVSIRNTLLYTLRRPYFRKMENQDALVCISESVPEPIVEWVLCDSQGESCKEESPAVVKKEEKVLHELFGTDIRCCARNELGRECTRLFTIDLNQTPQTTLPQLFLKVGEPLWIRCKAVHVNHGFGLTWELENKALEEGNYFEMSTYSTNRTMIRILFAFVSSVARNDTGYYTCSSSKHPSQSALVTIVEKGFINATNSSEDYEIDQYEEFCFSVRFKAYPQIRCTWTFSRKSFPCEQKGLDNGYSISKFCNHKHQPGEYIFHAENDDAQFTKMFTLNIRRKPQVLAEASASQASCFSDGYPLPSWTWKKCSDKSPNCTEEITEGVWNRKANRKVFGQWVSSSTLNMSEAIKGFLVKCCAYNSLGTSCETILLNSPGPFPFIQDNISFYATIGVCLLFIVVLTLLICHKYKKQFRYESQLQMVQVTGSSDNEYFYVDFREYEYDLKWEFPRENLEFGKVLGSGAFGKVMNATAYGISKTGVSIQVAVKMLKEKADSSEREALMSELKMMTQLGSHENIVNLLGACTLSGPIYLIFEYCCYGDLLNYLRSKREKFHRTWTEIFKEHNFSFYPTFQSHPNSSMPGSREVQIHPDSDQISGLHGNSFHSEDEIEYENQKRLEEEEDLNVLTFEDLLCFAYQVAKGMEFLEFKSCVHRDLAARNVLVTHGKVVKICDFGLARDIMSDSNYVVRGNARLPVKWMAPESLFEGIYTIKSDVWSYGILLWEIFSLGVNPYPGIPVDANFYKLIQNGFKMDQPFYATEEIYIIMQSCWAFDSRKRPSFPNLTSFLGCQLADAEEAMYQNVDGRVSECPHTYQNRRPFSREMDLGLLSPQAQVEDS
Procedure: (§1) The analysis was performed by ProQinase (Freiburg, Germany).

PRKG1 = target: T2, PRKG1 (Homo sapiens, UniProt Q13976)
T2 construct: purchased ProQinase (Freiburg, Germany)
T2 sequence (Q13976 1-671): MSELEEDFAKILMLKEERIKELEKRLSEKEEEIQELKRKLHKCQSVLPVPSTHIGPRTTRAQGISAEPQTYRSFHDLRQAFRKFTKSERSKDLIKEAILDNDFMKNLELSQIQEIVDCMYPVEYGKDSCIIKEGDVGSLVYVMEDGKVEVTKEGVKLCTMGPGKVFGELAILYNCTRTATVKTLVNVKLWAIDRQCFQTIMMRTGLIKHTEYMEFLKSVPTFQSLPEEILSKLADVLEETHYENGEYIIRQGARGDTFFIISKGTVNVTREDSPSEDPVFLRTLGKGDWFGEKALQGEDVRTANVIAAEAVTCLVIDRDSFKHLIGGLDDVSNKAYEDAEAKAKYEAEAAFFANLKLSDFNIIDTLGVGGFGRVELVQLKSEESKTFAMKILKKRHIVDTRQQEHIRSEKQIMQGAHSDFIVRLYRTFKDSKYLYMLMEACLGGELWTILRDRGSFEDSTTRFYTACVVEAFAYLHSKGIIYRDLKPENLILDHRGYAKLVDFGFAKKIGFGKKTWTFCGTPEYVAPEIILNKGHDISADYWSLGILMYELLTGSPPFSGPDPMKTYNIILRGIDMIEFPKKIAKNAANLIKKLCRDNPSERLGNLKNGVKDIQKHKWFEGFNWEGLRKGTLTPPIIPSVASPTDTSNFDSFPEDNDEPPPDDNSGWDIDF
Procedure: as §1

S6K = target: T3, S6K (Homo sapiens, UniProt P23443)
T3 construct: purchased ProQinase (Freiburg, Germany)
Procedure: as §1

RPS6KA3 = target: T4, RPS6KA3 (Homo sapiens, UniProt P51812)
T4 construct: purchased ProQinase (Freiburg, Germany)
Procedure: as §1

DYRK1B = target: T5, DYRK1B (Homo sapiens, UniProt Q9Y463)
T5 construct: purchased ProQinase (Freiburg, Germany)
Procedure: as §1

NEK9 = target: T6, NEK9 (Homo sapiens, UniProt Q8TD19)
T6 construct: purchased ProQinase (Freiburg, Germany)
T6 sequence (Q8TD19 1-979): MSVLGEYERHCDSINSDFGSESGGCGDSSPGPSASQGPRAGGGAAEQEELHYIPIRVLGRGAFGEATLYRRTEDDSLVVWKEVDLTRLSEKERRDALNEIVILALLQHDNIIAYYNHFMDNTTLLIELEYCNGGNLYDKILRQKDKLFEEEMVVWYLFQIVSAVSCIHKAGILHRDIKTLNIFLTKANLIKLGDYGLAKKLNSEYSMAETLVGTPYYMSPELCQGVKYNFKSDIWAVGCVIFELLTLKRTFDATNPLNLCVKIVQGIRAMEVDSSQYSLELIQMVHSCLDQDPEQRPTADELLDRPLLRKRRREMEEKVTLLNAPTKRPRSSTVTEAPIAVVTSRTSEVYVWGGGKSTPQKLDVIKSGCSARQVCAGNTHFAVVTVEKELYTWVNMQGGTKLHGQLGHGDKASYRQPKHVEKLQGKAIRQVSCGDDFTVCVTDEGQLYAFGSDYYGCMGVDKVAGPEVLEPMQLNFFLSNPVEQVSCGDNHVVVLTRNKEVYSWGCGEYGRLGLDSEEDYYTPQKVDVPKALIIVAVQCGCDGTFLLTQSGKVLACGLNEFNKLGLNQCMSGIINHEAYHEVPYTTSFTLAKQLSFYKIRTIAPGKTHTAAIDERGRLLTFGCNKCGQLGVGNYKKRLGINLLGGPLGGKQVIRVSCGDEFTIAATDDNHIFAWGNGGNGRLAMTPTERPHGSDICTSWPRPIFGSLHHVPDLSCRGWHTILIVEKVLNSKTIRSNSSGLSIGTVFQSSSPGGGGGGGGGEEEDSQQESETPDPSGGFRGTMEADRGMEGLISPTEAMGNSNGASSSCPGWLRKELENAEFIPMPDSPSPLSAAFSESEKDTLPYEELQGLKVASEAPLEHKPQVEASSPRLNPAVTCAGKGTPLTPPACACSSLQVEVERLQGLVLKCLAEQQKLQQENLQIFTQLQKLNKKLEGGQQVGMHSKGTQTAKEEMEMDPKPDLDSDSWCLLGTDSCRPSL
Procedure: as §1

COT = target: T7, COT (Homo sapiens, UniProt P41279)
T7 construct: purchased ProQinase (Freiburg, Germany)
Procedure: as §1

T3 sequence (P23443 whole entry): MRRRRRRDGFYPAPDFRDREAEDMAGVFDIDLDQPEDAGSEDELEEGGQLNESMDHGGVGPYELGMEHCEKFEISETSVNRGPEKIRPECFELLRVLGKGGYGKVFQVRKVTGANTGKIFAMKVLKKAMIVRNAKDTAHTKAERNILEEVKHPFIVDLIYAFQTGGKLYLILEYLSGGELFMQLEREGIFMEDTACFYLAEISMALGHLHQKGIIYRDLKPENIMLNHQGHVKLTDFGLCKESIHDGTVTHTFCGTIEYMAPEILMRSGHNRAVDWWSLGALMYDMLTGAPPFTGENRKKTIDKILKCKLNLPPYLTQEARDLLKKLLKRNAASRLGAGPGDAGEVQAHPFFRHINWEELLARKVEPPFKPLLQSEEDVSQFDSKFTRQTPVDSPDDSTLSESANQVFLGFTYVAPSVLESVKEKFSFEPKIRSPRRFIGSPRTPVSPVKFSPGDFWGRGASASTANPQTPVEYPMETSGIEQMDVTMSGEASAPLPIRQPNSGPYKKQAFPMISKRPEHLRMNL
T5 sequence (Q9Y463 whole entry): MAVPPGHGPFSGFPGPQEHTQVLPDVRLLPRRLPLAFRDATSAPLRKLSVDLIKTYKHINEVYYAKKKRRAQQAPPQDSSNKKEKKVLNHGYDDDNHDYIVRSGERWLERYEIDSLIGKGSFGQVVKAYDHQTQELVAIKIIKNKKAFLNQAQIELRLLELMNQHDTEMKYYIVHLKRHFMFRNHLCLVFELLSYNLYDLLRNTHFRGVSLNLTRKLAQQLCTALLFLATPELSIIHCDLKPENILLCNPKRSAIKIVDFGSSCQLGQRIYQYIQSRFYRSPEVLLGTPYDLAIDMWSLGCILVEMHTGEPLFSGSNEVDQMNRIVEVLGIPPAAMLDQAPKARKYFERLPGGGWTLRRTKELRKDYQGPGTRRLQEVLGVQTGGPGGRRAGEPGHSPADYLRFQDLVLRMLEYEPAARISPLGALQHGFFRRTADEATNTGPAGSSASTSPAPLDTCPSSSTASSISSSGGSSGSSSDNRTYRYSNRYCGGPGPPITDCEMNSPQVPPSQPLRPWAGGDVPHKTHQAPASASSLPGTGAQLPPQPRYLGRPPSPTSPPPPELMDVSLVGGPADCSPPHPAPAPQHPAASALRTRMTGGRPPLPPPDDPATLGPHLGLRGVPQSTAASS
T4 sequence (P51812 whole entry): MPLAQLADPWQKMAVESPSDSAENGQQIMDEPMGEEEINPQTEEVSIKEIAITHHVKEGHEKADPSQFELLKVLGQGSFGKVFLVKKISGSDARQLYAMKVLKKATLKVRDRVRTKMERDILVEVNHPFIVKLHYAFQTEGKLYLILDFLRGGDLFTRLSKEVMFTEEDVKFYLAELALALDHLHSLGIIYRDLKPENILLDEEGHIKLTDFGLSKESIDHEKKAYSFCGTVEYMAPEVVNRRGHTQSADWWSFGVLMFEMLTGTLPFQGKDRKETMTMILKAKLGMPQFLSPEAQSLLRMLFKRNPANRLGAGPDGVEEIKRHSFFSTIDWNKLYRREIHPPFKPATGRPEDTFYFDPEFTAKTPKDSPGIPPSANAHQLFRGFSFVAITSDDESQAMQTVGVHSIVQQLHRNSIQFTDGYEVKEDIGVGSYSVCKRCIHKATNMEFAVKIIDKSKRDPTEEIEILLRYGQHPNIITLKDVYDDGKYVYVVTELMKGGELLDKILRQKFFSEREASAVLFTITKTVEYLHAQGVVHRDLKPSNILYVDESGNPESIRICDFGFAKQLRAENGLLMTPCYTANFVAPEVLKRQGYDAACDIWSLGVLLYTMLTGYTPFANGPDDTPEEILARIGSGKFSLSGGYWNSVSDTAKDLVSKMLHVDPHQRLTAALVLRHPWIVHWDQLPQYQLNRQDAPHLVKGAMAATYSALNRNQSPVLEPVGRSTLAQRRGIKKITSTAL
T7 sequence (P41279 whole entry): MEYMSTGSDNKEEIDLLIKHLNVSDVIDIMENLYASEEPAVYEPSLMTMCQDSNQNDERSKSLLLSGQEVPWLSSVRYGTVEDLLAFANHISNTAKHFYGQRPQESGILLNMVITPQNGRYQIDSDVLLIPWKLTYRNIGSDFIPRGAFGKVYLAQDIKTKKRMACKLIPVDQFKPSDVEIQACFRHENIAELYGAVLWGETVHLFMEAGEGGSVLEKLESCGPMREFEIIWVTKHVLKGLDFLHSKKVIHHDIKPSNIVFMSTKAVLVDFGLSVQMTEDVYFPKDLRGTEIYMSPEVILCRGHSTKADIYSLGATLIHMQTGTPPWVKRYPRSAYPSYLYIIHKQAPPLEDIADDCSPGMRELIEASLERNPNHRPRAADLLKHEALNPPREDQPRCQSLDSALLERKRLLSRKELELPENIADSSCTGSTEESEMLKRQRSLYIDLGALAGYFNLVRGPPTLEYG

SMILES	Residual activity (FLT3; 1.0E-05 M)	Residual activity (FLT3; 1.0E-06 M)	Residual activity (PRKG1; 1.0E-05 M)	Residual activity (PRKG1; 1.0E-06 M)	Residual activity (S6K; 1.0E-05 M)	Residual activity (S6K; 1.0E-06 M)	Residual activity (RPS6KA3; 1.0E-05 M)	Residual activity (RPS6KA3; 1.0E-06 M)	Residual activity (DYRK1B; 1.0E-05 M)	Residual activity (DYRK1B; 1.0E-06 M)	Residual activity (NEK9; 1.0E-05 M)	Residual activity (NEK9; 1.0E-06 M)	Residual activity (COT; 1.0E-05 M)	Residual activity (COT; 1.0E-06 M)
O=C(Cc1ccccc1)Nc1ccc(F)c(Nc2ccc3c(c2)CCCCC3=O)c1 [Compound 100]	94 % of control	101 % of control	96 % of control	120 % of control	92 % of control	102 % of control	80 % of control	97 % of control	117 % of control	103 % of control	93 % of control	86 % of control	106 % of control	93 % of control
O=C(Nc1ccc(F)c(Nc2ccc3c(c2)CCCCC3=O)c1)c1cccc(F)c1 [Compound 109]	91 % of control	98 % of control	90 % of control	113 % of control	91 % of control	88 % of control	84 % of control	90 % of control	96 % of control	103 % of control	81 % of control	96 % of control	97 % of control	95 % of control
